Assay results published in ChEMBL document CHEMBL1136262, “4-Alkoxy-2,6-diaminopyrimidine derivatives: inhibitors of cyclin dependent kinases 1 and 2” (Bioorg Med Chem Lett, 2003).

How the values were obtained:
[1] = target: T1, Cyclin-dependent kinase 1/cyclin B1 (Homo sapiens, UniProt P06493+P14635); experiment: Inhibition of Cyclin dependent kinase 1-cyclin B1 from starfish oocytes at 100 uM; settings: Asteroidea, Oocyte
[2] = target: T2, Cyclin-dependent kinase 2/cyclin A (Homo sapiens) (UniProt P24941+P20248+P78396); experiment: Inhibition of human Cyclin-dependent kinase 2 cyclin A3 at 100 uM; format: protein-complex assay
[3] = target: Cyclin-dependent kinase 2/cyclin A (Homo sapiens, UniProt P24941); experiment: Inhibition of human Cyclin-dependent kinase 2 cyclin A3 at 12.5 uM ATP; format: protein-complex assay
[4] = target: T2, Cyclin-dependent kinase 2/cyclin A (Homo sapiens); experiment: Inhibition of human Cyclin-dependent kinase 2 cyclin A3 at 10 uM; format: protein-complex assay
[5] = target: T1, Cyclin-dependent kinase 1/cyclin B1; experiment: Inhibition of Cyclin dependent kinase 1-cyclin B1 from starfish oocytes at 10 uM; settings: Asteroidea, Oocyte

T1 sequence (P06493 whole entry, looked up): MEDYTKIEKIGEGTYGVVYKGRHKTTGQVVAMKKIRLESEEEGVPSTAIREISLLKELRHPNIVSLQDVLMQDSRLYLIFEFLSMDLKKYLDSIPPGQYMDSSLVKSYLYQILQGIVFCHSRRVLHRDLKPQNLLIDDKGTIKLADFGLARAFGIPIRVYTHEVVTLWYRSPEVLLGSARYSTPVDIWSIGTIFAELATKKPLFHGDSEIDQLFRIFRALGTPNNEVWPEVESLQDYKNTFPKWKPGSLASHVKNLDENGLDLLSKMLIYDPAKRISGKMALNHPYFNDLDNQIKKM
T1 sequence (P14635 whole entry, looked up): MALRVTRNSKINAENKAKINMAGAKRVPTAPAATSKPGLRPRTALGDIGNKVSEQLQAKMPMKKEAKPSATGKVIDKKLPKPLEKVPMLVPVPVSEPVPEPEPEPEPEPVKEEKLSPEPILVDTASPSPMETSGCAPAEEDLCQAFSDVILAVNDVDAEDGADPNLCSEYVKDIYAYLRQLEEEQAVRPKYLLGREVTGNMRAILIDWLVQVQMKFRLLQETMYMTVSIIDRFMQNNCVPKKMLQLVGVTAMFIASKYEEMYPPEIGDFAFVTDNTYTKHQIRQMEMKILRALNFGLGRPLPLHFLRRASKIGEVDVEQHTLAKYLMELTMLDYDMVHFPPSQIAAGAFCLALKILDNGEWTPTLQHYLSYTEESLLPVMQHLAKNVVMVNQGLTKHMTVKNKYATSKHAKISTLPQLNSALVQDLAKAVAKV

`Nc1nc(N)c(C(O)c2ccccc2)c(OCC2CCCCC2)n1` (configuration not stated) gave an inhibition [1] of 4% and an inhibition [2] of 12%.
For `Nc1nc(N)c(N=O)c(OC[C@@H]2NCCC2=O)n1`, the IC50 [3] was 65 µM.
In the case of `Nc1nc(N)c(N=O)c(OCc2ccccc2)n1`, the IC50 [3] is reported as 27 µM.
With `Nc1nc(N)c(N=O)c(OCC2CC=CCC2)n1` (configuration not stated) the IC50 [3] was 5 µM.
`Nc1nc(N)c(C(=O)c2ccccc2)c(OCC2CCCCC2)n1` showed an inhibition [4] of 6% and an inhibition [5] of 21%.
In the case of `Nc1nc(N)c(N)c(OCC2CCCCC2)n1`, the inhibition [1] is reported as 40% and the inhibition [2] is reported as 52%.
`COc1ccc(Nc2nc(N)nc(OCC3CCCCC3)c2N=O)cc1` was tested, and the inhibition [1] was 7% and the inhibition [2] was 8%.
Compound `COC(=O)Nc1nc(N)nc(OCC2CCCCC2)c1N=O` has an inhibition [1] of 8% and an inhibition [2] of 6%.
Work on `CO/N=C/c1c(N)nc(N)nc1OCC1CCCCC1` yielded an inhibition [4] of 13% and an inhibition [5] of 13%.
Compound `Nc1nc(N)c(/C=N/O)c(OCC2CCCCC2)n1` has an inhibition [1] of 25% and an inhibition [2] of 37%.
`CC(=O)Nc1nc(N)nc(OCC2CCCCC2)c1N=O` was tested, and the inhibition [1] was 36% and the inhibition [2] was 28%.
With `Nc1nc(Nc2ccccc2)c(N=O)c(OCC2CCCCC2)n1` the inhibition [1] was 23% and the inhibition [2] was 47%.
For `CCCCCOc1nc(N)nc(N)c1N=O`, the inhibition [4] was 36% and the inhibition [5] was 35%.
Work on `CCCCCCCOc1nc(N)nc(N)c1N=O` yielded an inhibition [4] of 22% and an inhibition [5] of 17%.
`Nc1cc(OCC2CC=CCC2)nc(N)n1` (configuration not stated) gave an inhibition [4] of 8% and an inhibition [5] of 16%.
`Nc1cc(OCC2CCCCC2)nc(N)n1` was tested, and the inhibition [4] was 7% and the inhibition [5] was 4%.
`Nc1nc(N)c(/C=N/OCc2ccccc2)c(OCC2CCCCC2)n1` showed an inhibition [4] of 3% and an inhibition [5] of 5%.
Compound `Nc1nc(N)c(C=O)c(OCC2CCCCC2)n1` has an inhibition [4] of 43% and an inhibition [5] of 35%.
Compound `NC(=O)N/N=C/c1c(N)nc(N)nc1OCC1CCCCC1` has an inhibition [1] of 61% and an inhibition [2] of 44%.
`Nc1nc(NC(=O)OCc2ccccc2)c(N=O)c(OCC2CCCCC2)n1` showed an inhibition [4] of 11% and an inhibition [5] of 14%.
